Data on 19 compounds can be found in US8796280B2, “2,3-disubstituted pyrazinesulfonamides as CRTH2 inhibitors” (Merck Serono, S.A., priority 2005, dated 2014).

Assay [1] has as its target T1, CRTH2 (Homo sapiens (Human), UniProt Q9Y5Y4). Nature of the assay: Determination of Ki, equilibrium competition binding against [3H]PGD2. The note with it: competition against [3H]PGD2; average of at least three independent dose response experiments; Ki calculated from IC50. As to the method: (§1) The inhibitory activity can be investigated by a radioligand binding assay (Sawyer et al., Br. J. Pharmocol 2002, 137, 1163-72). The radioligand binding assay was performed at room temperature in binding buffer (10 mM HEPES/KOH pH […], with protease inhibitor cocktail tablets), containing 1.5 nM [^3H]PGD2 (Amersham, 156 Cie/mmol), and 10 μg of hCRTH2 HEK293 (EBNA) cell membrane protein in a final volume of 100 μl in 96 well plates (Corning, USA). Non-specific binding was determined in the presence of 1 μM PGD2 (Cayman, USA). Competing pyrazine sulfonamides were diluted in dimethylsulphoxide so that the total volume of dimethylsulfoxide was kept constant at 1% dimethylsulphoxide (Me2SO). 10 μl of the pyrazine sulfonamides were added. Incubation (60 min at room temperature) was terminated by rapid filtration through 96 wells hydrophobic GF/C Unifilter plates (Whatman, USA). Filters were washed twice with 250 μl of Tris-HCl pH 7.4, 10 mM MnCl2, and residual radioligand bound to the filters was mixed to 100 μl of liquid scintillation cocktail (Optiphase Supermix, Perkin Elmer, USA) and binding activity was determined by counting residual radioligand using a 1450 Micro-beta scintillation counter (Wallac, UK).
Ki values were determined by equilibrium competition binding experiments against [^3H]PGD2. Ki values were calculated from the formula below and represent the average of at least three independent dose response experiments. The Ki values give the ligand concentrations necessary to inhibit 50% of the binding of 3[H]PGD2 to CRTH2. Ki=IC50/(1+[Concentration of Ligand]/Kd)]
All experiments were performed in 96 well plates, in a final volume of 100 μl according to the above described filtration assay. The concentration of membranes and 3[H]PGD2, as well as the positive and negative controls were identical to the conditions described above.

For assay [2], the target named is T1, CRTH2. Nature of the assay: Radioligand binding assay ([3H]PGD2 displacement, hCRTH2 HEK293 (EBNA) cell membranes). To be noted: 1.5 nM [3H]PGD2, 10 μg hCRTH2 HEK293 (EBNA) membrane protein, 60 min room temperature; test concentration not given.
Source text: Human CRTH2 cDNA was amplified by PCR using a human urinary bladder cDNA library as a template and specific primers containing HindIII and BamHI restriction sites for cloning into the pCEP4 vector (Invitrogen). The vector construction is described in detail in Sawyer et al., Br. J. Pharmocol 2002, 137, 1163-72. The nucleotide sequence of the cloned cDNA was identical the previously reported hCRTH2 sequence (Nagata et al, 1999, J. Immunol. 162, 1278-1286).
HEK293 (EBNA) cells were transfected with the pCEP4-hCRTH2 construct using the calcium phosphate technique. Cells were maintained in culture at 37° C. in an atmosphere of 5% CO2 in Dulbecco's modified Eagle's F12 medium (Invitrogen), containing 10% heat-inactivated foetal calf serum (TerraCell International, Canada), 2 mM Glutamine, 100 units/ml of penicillin and 100 μg/ml streptomycin (Invitrogen). 48 hours after the transfection, cells were grown in presence of 300 μg/ml of Hygromycin B (Invitrogen) for 4 weeks and antibiotic resistant cells were amplified for cell membrane preparation.
Adherent HEK293 (EBNA) cells expressing hCRTH2 were cultured in 225 cm^2 cell culture flasks (Corning, USA) in 30 ml of medium. After two rinses of phosphate buffered saline (PBS), cells were harvested in 10 ml of PBS containing 1 mM EDTA, centrifuged at 500×g for 5 min at 4° C. and frozen at −80° C. The pellet was re-suspended in 50 mM Tris-HCl, pH 7.4, 2 mM EDTA, 250 mM Sucrose, containing protease inhibitor cocktail tablets, (Complete EDTA-free, Roche, Germany) and incubated 30 min at 4° C. Cells were disrupted by nitrogen cavitation (Parr Instruments, USA) at 4° C. (800 p.s.i. for 30 min), and centrifuged at 500×g for 10 min at 4° C. Pellet containing nuclei and cellular debris was discarded and supernatant was centrifuged 60 min at 4° C. at 45000×g. Membrane pellet was re-suspended in storage buffer (10 mM HEPES/KOH pH 7.4, 1 mM EDTA, 250 mM sucrose, protease inhibitor cocktail tablets) using Dounce homogenization and frozen in liquid nitrogen, and stored at −80° C.
as §1

T1 sequence (Q9Y5Y4 whole entry): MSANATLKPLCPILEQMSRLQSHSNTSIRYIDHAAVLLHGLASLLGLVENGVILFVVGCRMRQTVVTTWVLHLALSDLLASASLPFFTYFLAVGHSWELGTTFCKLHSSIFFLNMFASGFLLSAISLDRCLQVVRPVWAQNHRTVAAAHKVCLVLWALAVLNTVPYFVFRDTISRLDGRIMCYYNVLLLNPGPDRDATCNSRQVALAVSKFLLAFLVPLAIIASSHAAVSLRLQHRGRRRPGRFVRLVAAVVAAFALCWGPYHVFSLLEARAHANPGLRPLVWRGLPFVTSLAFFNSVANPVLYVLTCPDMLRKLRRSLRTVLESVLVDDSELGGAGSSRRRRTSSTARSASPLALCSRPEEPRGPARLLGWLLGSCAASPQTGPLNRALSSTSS

`CN(Cc1ccc(-c2nccnc2NS(=O)(=O)c2ccccc2Cl)cc1)c1ccccc1` [Compound 4, 2-chloro-N-[3-(4-{[methyl(phenyl)amino]methyl}phenyl)pyrazin-2-yl]-benzenesulfonamide]: the Ki (in general, a dissociation constant, usually derived from enzyme kinetics or from competition with a known ligand) at CRTH2 [1] is 1.57 µM. The “Inhibition hCRTH2 [%]” value at CRTH2 [2] is listed as 84.5%. The like results for `O=S(=O)(Nc1nccnc1-c1ccc(COc2ccc3ccccc3c2)cc1)c1ccccc1Cl` [Compound 5, 2-chloro-N-(3-{4-[(2-naphthyloxy)methyl]phenyl}pyrazin-2-yl)benzene-sulfonamide] were, in that order, 2.32 µM and 82.0%. The like results for `O=S(=O)(Nc1nccnc1-c1ccc(Cn2ccc3ccccc32)cc1)c1ccccc1Cl` [Compound 6, 2-chloro-N-{3-[4-(1H-indol-1-ylmethyl)phenyl]pyrazin-2-yl}benzene-sulfonamide] were, in that order, 2.12 µM and 81.5%. On the same counts, the results for `O=S(=O)(Nc1nccnc1-c1ccc(COc2ccc3c(c2)CCCC3)cc1)c1ccccc1Cl` [Compound 7, 2-chloro-N-(3-{4-[(5,6,7,8-tetrahydronaphthalen-2-yloxy)methyl]-phenyl}-pyrazin-2-yl)benzenesulfonamide] are 2.59 µM and 80.0%. Turning to `CCc1nc2ccccc2n1Cc1ccc(-c2nccnc2NS(=O)(=O)c2ccccc2Cl)cc1` [Compound 8, 2-chloro-N-(3-{4-[(2-ethyl-1H-benzimidazol-1-yl)methyl]phenyl}pyrazin-2-yl)benzenesulfonamide], the Ki at CRTH2 [1] was 1.42 µM. Moreover, the “Inhibition hCRTH2 [%]” value at CRTH2 [2] worked out at 79.0%. On the same counts, the results for `O=S(=O)(Nc1nccnc1-c1ccc(CNc2ccc3c(c2)OCO3)cc1)c1ccccc1C(F)(F)F` [Compound 9, N-(3-{4-[(1,3-benzodioxol-5-ylamino)methyl]phenyl}pyrazin-2-yl)-2-(trifluoromethyl)benzenesulfonamide] are 2.98 µM and 72.5%. Regarding `COc1cccc(COCc2ccc(-c3nccnc3NS(=O)(=O)c3ccccc3C(F)(F)F)cc2)c1` [Compound 10, N-[3-(4-{[(3-methoxybenzyl)oxy]methyl}phenyl)pyrazin-2-yl]-2-(trifluoromethyl)benzenesulfonamide], the Ki on CRTH2 [1] was 1.4 µM. In addition, the “Inhibition hCRTH2 [%]” value on CRTH2 [2] is reported as 72.0%.

For `CN(Cc1ccc(-c2nccnc2NS(=O)(=O)c2cccc(Cl)c2)cc1)c1ccc(OC(F)(F)F)cc1` [Compound 11, 3-chloro-N-{3-[4-({methyl[4-(trifluoromethoxy)phenyl]amino}methyl)phenyl]pyrazin-2-yl}benzenesulfonamide], the Ki at CRTH2 [1] was 5.16 µM. Besides, the “Inhibition hCRTH2 [%]” value on CRTH2 [2] came out at 65.0%. The like results for `CN(Cc1ccc(-c2nccnc2NS(=O)(=O)c2cccs2)cc1)c1ccc(Cl)cc1` [Compound 12, N-[3-(4-{[(4-chlorophenyl)(methyl)amino]methyl}phenyl)pyrazin-2-yl]-thiophene-2-sulfonamide] were, in that order, 8.43 µM and 65.0%. The like results for `O=S(=O)(Nc1nccnc1N1CCN(Cc2ccc3ccccc3n2)CC1)c1ccc(Oc2ccccc2)cc1` [Compound 13, 4-phenoxy-N-{3-[4-(quinolin-2-ylmethyl)piperazin-1-yl]pyrazin-2-yl}-benzenesulfonamide] were, in that order, 4.03 µM and 64.5%. The like results for `Cc1ccc(S(=O)(=O)Nc2nccnc2-c2ccc(CN(C)c3ccc(OC(F)(F)F)cc3)cc2)cc1` [Compound 14, 4-methyl-N-{3-[4-({methyl[4-(trifluoromethoxy)phenyl]amino}-methyl)phenyl]pyrazin-2-yl}benzenesulfonamide] were, in that order, 5.85 µM and 53.0%. For `CN(Cc1ccc(-c2nccnc2NS(=O)(=O)c2ccc(Cl)cc2)cc1)c1ccccc1` [Compound 15, 4-chloro-N-[3-(4-{[methyl(phenyl)amino]methyl}phenyl)pyrazin-2-yl]-benzenesulfonamide], on CRTH2 [1], the Ki is 5.38 µM. The “Inhibition hCRTH2 [%]” value at CRTH2 [2] stood at 51.0%. On the same counts, the results for `CN(Cc1ccc(-c2nccnc2NS(=O)(=O)c2ccc(C#N)cc2)cc1)c1ccc(OC(F)(F)F)cc1` [Compound 16, 4-cyano-N-{3-[4-({methyl[4-(trifluoromethoxy)phenyl]amino}-methyl)phenyl]pyrazin-2-yl}benzenesulfonamide] are 5.71 µM and 47.0%.

Turning to `CN(Cc1ccc(-c2nccnc2NS(=O)(=O)c2ccccc2C(F)(F)F)cc1)c1ccc(F)cc1` [Compound 17, N-[3-(4-{[(4-Fluoro-phenyl)-methyl-amino]-methyl}-phenyl)-pyrazin-2-yl]-2-trifluoromethyl-benzenesulfonamide], the inhibition constant Ki at CRTH2 [1] was 0.38 µM.

Consider `CN(Cc1ccc(-c2nccnc2NS(=O)(=O)c2ccccc2C(F)(F)F)cc1)c1ccccc1` [Compound 18, N-(3-{4-[(Methyl-phenyl-amino)-methyl]-phenyl}-pyrazin-2-yl)-2-trifluoromethyl-benzenesulfonamide], for which the Ki at CRTH2 [1] was 0.4 µM. Same read-out and setting: for `O=S(=O)(Nc1nccnc1-c1ccc(Cn2ccc3cc(F)ccc32)cc1)c1ccccc1Cl` [Compound 41, 2-Chloro-N-{3-[4-(5-fluoro-indol-1-ylmethyl)-phenyl]-pyrazin-2-yl}-benzenesulfonamide] the value was 3.9 µM; for `CN(Cc1ccc(-c2nccnc2NS(=O)(=O)c2ccccc2Cl)cc1)c1ccccc1F` [Compound 42, 2-Chloro-N-[3-(4-{[(2-fluoro-phenyl)-methyl-amino]-methyl}-phenyl)-pyrazin-2-yl]-benzenesulfonamide], 3.9 µM. Turning to `Cc1cc2ccccc2n1Cc1ccc(-c2nccnc2NS(=O)(=O)c2ccccc2Cl)cc1` [Compound 43, 2-Chloro-N-{3-[4-(2-methyl-indol-1-ylmethyl)-phenyl]-pyrazin-2-yl}-benzenesulfonamide], the Ki on CRTH2 [1] is 4.11 µM. In the case of `CCN(Cc1ccc(-c2nccnc2NS(=O)(=O)c2ccccc2Cl)cc1)c1ccccn1` [Compound 45, 2-Chloro-N-(3-{4-[(ethyl-pyridin-2-yl-amino)-methyl]-phenyl}-pyrazin-2-yl)-benzenesulfonamide], the inhibition constant (Ki) at CRTH2 [1] is 4.51 µM.
